Source: US9205113B2, “Synthetic triterpenoids and methods for modulating stem/progenitor cell gene expression” (Trustees of Dartmouth College, priority 2012, dated 2015)

What was measured:
SOX9 [1] = assay: quantitative RT-PCR of calvarial organ cultures: SOX9; format: cell-based; conditions: 7 days of culture, newborn mouse calvaria
Experimental: (§1) Calvarial Organ Cultures. Details have been published previously (Garrett, et al. (2003) J. Clin. Invest. 111:1771-82). Calvaria were cultured in BGJ medium supplemented with 1 mg/mL of bovine serum albumin (Cohn fraction V), 100 U/ml each of penicillin/streptomycin, and 0.292 mg/mL of glutamine. On Day 1, the calvaria were treated with synthetic oleanane triterpenoids. On Day 4, the medium was replaced with fresh medium, again containing synthetic oleanane triterpenoids. On Day 7, calvaria were collected, either stored at −80° C. for further RNA analysis or fixed in 10% buffered formalin for 24 hours and transferred to 80% ethanol for histologic analysis.
(§2) Quantitative RT-PCR (gRT-PCR). Detailed procedures for qRT-PCR are known in the art (Lee, et al. (2006) Biochem. Pharmacol. 72:332-43). In brief, 30 ng of RNA was reverse transcribed to cDNA using the random primers and Applied Biosystems' High Capacity cDNA Archive Kit in a 96-well format MASTERCYCLER Gradient from EPPENDORF. Subsequently, cDNA was amplified with ASSAYS-ON-DEMAND Products containing two gene specific primers and one TAQMAN MGB probe (6-FAM dye-labeled) using the TAQMAN Universal PCR Master Mix in an ABI PRISM 7000 Sequencing Detector (Applied Biosystems). All labeled primers were obtained from Applied Biosystems.
(§3) In addition to the histologic analysis of the calvarial cultures, mechanistic aspects of the action of both CDDO-EA and CDDO-Im were investigated in the calvaria. After 7 days of culture, RNA was isolated from the calvaria and quantitative RT-PCR analysis was performed for more than 15 different markers, including: SOX9, collagen IIα1, all three isoforms of TGF-β, BMPs 2 and 4, BMP receptor II, Smads 3, 4, 6, and 7, tissue inhibitors of metalloproteinases (TIMP-1 and TIMP-2), and matrix metalloproteinase-9 (MMP-9). […] The 50 nM dose was generally ineffective. In contrast, both triterpenoids were strong inhibitors of the expression of MMP-9; CDDO-EA (200 nM) caused almost 80% inhibition of the expression of this metalloproteinase, which is known to be involved in the degradation of cartilage (Shinoda, et al. (2008) J. Biol. Chem. 283:24632-9).

COL2A1 = assay: quantitative RT-PCR of calvarial organ cultures: COL2A1; format: cell-based; conditions: 7 days of culture, newborn mouse calvaria
Experimental: as §1, §2, §3

newborn mouse calvaria = assay: histologic analysis of calvarial organ cultures (H&E, toluidine blue): chondrogenesis; format: cell-based; conditions: 200 nM, 7 days; for induction of chondrogenesis in newborn mouse calvaria (histology): H&E or toluidine blue sections; for formation of proteoglycans such as aggrecan (metachromatic toluidine blue staining): calvarial sections
Experimental: as §1
(§4) Histologic Analysis of Calvaria. After fixation for hours, calvaria were decalcified in EDTA, embedded in paraffin and sectioned at 4 μm. Sections were stained either with modified hematoxylin and eosin (H&E) or with toluidine blue (1% in 70% ethanol for 20 minutes, followed by destaining in 70%, 90% and 100% ethanol for 15 seconds), placed in xylene twice, and then mounted. Procedures for immunofluorescence staining have been described (Medici, et al. (2010) Nat. Med. 74:537-45). Primary antibodies against collagen type II (AB746P, Millipore), were used at 1:100 dilution; ALEXFLUOR secondary antibodies (Invitrogen) at 1:200 dilution. For nuclear staining, To-PRO-3 Iodide (T3605, Invitrogen) was used.
For the results described here, more than 300 individual calvarial organ cultures were performed. […] No new cartilage was seen on control sections stained with either H&E or toluidine blue. […] With toluidine blue, bone stained orthochromatically (blue).
With respect to dose-response to either synthetic oleanane, 200 nM appeared to be optimal. Treatment with 50 nM triterpenoid yielded only marginal induction of chondrogenesis, while treatment with 500 nM synthetic oleanane gave somewhat variable results. Treatment with […] triterpenoid was invariably toxic to the organ cultures.

[2] = tested on: type II collagen (collagen IIα1); assay: immunohistochemistry of calvarial organ cultures: type II collagen; format: cell-based, mouse; conditions: 200 nM, calvarial sections, not seen in control sections
Experimental: as §1
as §4, with “used. […]” for “used.”

SOX9 [3] = assay: Western blot in bone marrow stem cell cultures: SOX9; format: cell-based; conditions: 100 nM for 7 days, human BMSC cultures, not detectable in control
Experimental: (§5) Bone Marrow-Derived Stem Cell Culture and Immunoblotting. Human bone marrow-derived stromal cells, which contain a population of responsive mesenchymal stem cells (ScienCell Research Laboratories), were grown in mesenchymal stem cell medium (ScienCell Research Laboratories). Cells were serum-starved 24 hours prior to all experimental conditions. Immunoblotting was performed using the following antibodies at concentrations (and using protocols) recommended by the respective manufacturers: SOX9 (sc-20095, Santa Cruz Biotechnology), collagen IIα1 (sc-7764 and sc-28887, Santa Cruz), aggrecan (ab3778 and ab36861, Abcam), BMP-2 (ab14933, Abcam), phospho-Smad5 (9516, Cell Signaling Technology), Smad5 (9517, Cell Signaling Technology), β-actin (A1978, SigmaeAldrich). HRP-conjugated IgG TRUEBLOT reagents (18-8814, eBioscience) were used at a dilution of 1:1000.
(§6) Further studies on mechanism were pursued in human bone marrow stem cell (BMSC) cultures. […] BMP-2 is known to induce chondrogenic lineage development of human mesenchymal stem cells in culture (Schmitt, et al. (2003) Differentiation 71:567-77).

collagen type 2 = assay: Western blot in bone marrow stem cell cultures: collagen type 2; format: cell-based; conditions: 100 nM for 7 days, human BMSC cultures, not detectable in control
Experimental: as §5, §6

aggrecan = assay: Western blot in bone marrow stem cell cultures: aggrecan; format: cell-based; conditions: 100 nM for 7 days, human BMSC cultures, not detectable in control
Experimental: as §5, §6

Row | Compound | SOX9 expression (quantitative RT-PCR) (SOX9 [1]; 50 nM) | SOX9 expression (quantitative RT-PCR) (SOX9 [1]; 200 nM) | SOX9 expression (quantitative RT-PCR) (SOX9 [1]; 500 nM) | COL2A1 expression (quantitative RT-PCR) (COL2A1; 50 nM) | COL2A1 expression (quantitative RT-PCR) (COL2A1; 200 nM) | COL2A1 expression (quantitative RT-PCR) (COL2A1; 500 nM) | induction of chondrogenesis in newborn mouse calvaria (histology) (newborn mouse calvaria) | formation of proteoglycans such as aggrecan (metachromatic toluidine blue staining) (newborn mouse calvaria) | formation of type II collagen (collagen IIα1), immunohistochemistry [2] | expression of chondrocyte marker SOX9 (Western blot) (SOX9 [3]) | expression of chondrocyte marker collagen type 2 (Western blot) (collagen type 2) | expression of chondrocyte marker aggrecan (Western blot) (aggrecan)
1 | CCNC(=O)[C@]12CCC(C)(C)C[C@H]1[C@H]1C(=O)C=C3[C@@]4(C)C=C(C#N)C(=O)C(C)(C)[C@@H]4CC[C@@]3(C)[C@]1(C)CC2 [CDDO-EA] | 1.64 ± 0.17 | 2.62 ± 0.33 | 3.12 ± 0.38 | 4.12 ± 1.78 | 5.45 ± 1.13 | 3.18 ± 0.71 | marked ability to induce chondrogenesis | induce the formation of proteoglycans | induced the formation of type II collagen | induced expression | induced expression | induced expression
2 | CC1(C)CC[C@]2(C(=O)n3ccnc3)CC[C@]3(C)[C@H](C(=O)C=C4[C@@]5(C)C=C(C#N)C(=O)C(C)(C)[C@@H]5CC[C@]43C)[C@@H]2C1 [CDDO-Im, 1-(2-cyano-3,12-dioxooleana-1,9(11)-dien-28-oyl) imidazole] | 1.26 ± 0.08 | 1.33 ± 0.05 | 1.83 ± 0.13 | 1.45 ± 0.09 | 1.32 ± 0.23 | 1.72 ± 0.39 | marked ability to induce chondrogenesis | induce the formation of proteoglycans | induced the formation of type II collagen | induced expression | induced expression | induced expression
